Laboratory results reported in ChEMBL document CHEMBL1944507, “Structure-activity relationships for amide-, carbamate-, and urea-linked analogues of the tuberculosis drug (6S)-2-nitro-6-{[4-(trifluoromethoxy)benzyl]oxy}-6,7-dihydro-5H-imidazo[2,1-b][1,3]oxazine (PA-824)” (J Med Chem, 2012).
In brackets after ≈: the same amount, converted by molar mass.

These compounds were tested on Mycobacterium tuberculosis variant bovis (assay: Antimicrobial activity against Mycobacterium bovis).
Assay type: functional
`O=C(N[C@@H]1COc2nc([N+](=O)[O-])cn2C1)OCc1ccc(OC(F)(F)F)cc1` showed an MIC of 0.037 µM (≈ 0.0149 µg/mL). With `O=C(NCc1ccc(OC(F)(F)F)cc1)O[C@@H]1COc2nc([N+](=O)[O-])cn2C1` the MIC was 0.075 µM (≈ 0.0302 µg/mL). `O=C(N[C@@H]1COc2nc([N+](=O)[O-])cn2C1)c1ccc(OC(F)(F)F)cc1` was tested, and the MIC was 1.34 µM (≈ 0.499 µg/mL). With `O=[N+]([O-])c1cn2c(n1)OC[C@@H](OCc1ccc(OC(F)(F)F)cc1)C2` [PRETOMANID] the MIC was 0.167 µM (≈ 0.06 µg/mL). `O=C(Nc1ccc(OC(F)(F)F)cc1)O[C@@H]1COc2nc([N+](=O)[O-])cn2C1` was tested, and the MIC was 0.039 µM (≈ 0.0151 µg/mL). For `O=C(Nc1ccc(OC(F)(F)F)cc1)N[C@@H]1COc2nc([N+](=O)[O-])cn2C1`, the MIC was 0.039 µM (≈ 0.0151 µg/mL).
